The text below walks through data of US10023592B2, “Bromodomain inhibitors” (Celgene Quanticel Research, Inc., priority 2013, dated 2018).

One test has as its target BRD4(BD1) (Homo sapiens (Human), UniProt O60885). The test is described as follows: In vitro enzyme inhibition assay (BRD4 AlphaScreen). It counts as binding. Put shortly:
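His-tagged BRD4 tested by AlphaScreen for binding of biotinylated H4K5/8/12/16-tetraacetyl peptide. After 20 min at room temperature, streptavidin donor and nickel chelate acceptor beads added (5 μg/mL final each). IC50 determined.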

The subject of test [1] is NCI-H460, human non-small cell lung cancer cells. The test is described as follows: Cell-MTS proliferation assay, NCI-H460. In kind it is cell-based. As to conditions: Homo sapiens, 168 hr. Put shortly:
(§1)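 Seeded for ~90% confluence at 7 days (Raji 15,000, HL-60 5,000, NCI-H460 3,000 cells/well); compound added 24 h post-plating as 11-point dilution, 100 μM to 2.0 nM final.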

Test [2] relates to HL-60, human proleukemia cells. Briefly: Cell-MTS proliferation assay, HL-60. As to conditions: Homo sapiens, 168 hr. It counts as cell-based. In outline:
as §1

Test [3] has as its system Raji, human Burkitts lymphoma cells. Briefly: Cell-MTS proliferation assay, Raji. In kind it is cell-based. Conditions: Homo sapiens, 168 hr. Put shortly:
as §1

The mark [4] stands for this setting: in vitro enzyme inhibition assay.
Where [5] appears, read: NCI-H460, Cell-MTS proliferation.
Where [6] appears, read: NCI-H460, Cell-MTS, class symbols A/B/C.
Where [7] appears, read: HL-60, Cell-MTS, class symbols A/B/C.
Setting [8] is: Raji, Cell-MTS, class symbols A/B/C.
[9] abbreviates: Cell-MTS proliferation, NCI-H460 cells.
Setting [10] is: Cell-MTS proliferation, HL-60 cells.
[11] abbreviates: Cell-MTS proliferation, Raji cells.

Consider `C#Cc1cc(-c2cc(NS(=O)(=O)CC)ccc2Oc2ccc(F)cc2F)cn(C)c1=O` [Example 283, N-[4-(2,4-difluorophenoxy)-3-(5-ethynyl-1-methyl-6-oxopyridin-3-yl)phenyl]ethanesulfonamide], for which the IC50 against BRD4(BD1) (setting [4]) was below 500 nM; in test [1] (setting [5]) it was above 5000 nM; in test [2] (HL-60, Cell-MTS proliferation), below 500 nM; in test [3] (Raji, Cell-MTS proliferation), 500 to 5000 nM.
With `CCS(=O)(=O)c1ccc(OCC2CC2)c(-c2cn(C)c(=O)c3ccc(-c4cnn(C)c4)cc23)c1` [Example 82, 4-[2-(cyclopropylmethoxy)-5-ethylsulfonylphenyl]-2-methyl-6-(1-methylpyrazol-4-yl)isoquinolin-1-one], the IC50 is below 500 nM against BRD4(BD1) (class symbols A/B/C), 500 to 5000 nM in test [1] (setting [6]), below 500 nM in test [2] (setting [7]) and below 500 nM in test [3] (setting [8]).
With `COc1cc(-c2nc(S(C)(=O)=O)ncc2Oc2ccc(F)cc2F)cn(C)c1=O` [Example 150, 5-[5-(2,4-difluorophenoxy)-2-methylsulfonylpyrimidin-4-yl]-3-methoxy-1-methylpyridin-2-one], the IC50 on BRD4(BD1) (setting [4]) was below 500 nM; in test [1] (setting [5]), above 5000 nM; in test [2] (HL-60, Cell-MTS proliferation), 500 to 5000 nM; in test [3] (Raji, Cell-MTS proliferation), 500 to 5000 nM.
Regarding `COc1ccc(-c2cn(C)c(=O)c3cc(F)ccc23)cc1S(=O)(=O)NCc1ccccc1` [Example 60, N-benzyl-5-(7-fluoro-2-methyl-1-oxoisoquinolin-4-yl)-2-methoxybenzenesulfonamide], the IC50 against BRD4(BD1) (class symbols A/B/C) was 500 to 5000 nM; in test [1] (setting [6]) it was above 5000 nM; in test [2] (setting [7]) it was 500 to 5000 nM; in test [3] (setting [8]) it was below 500 nM.
With `CC(C)n1cc(Oc2cc(-c3cc(S(C)(=O)=O)ccc3OCC3CC3)cn(C)c2=O)cn1` [Example 294, 5-[2-(cyclopropylmethoxy)-5-methylsulfonylphenyl]-1-methyl-3-(1-propan-2-ylpyrazol-4-yl)oxypyridin-2-one], the IC50 on BRD4(BD1) (setting [4]) is below 500 nM; in test [1] (setting [5]), above 5000 nM; in test [2] (HL-60, Cell-MTS proliferation), 500 to 5000 nM; in test [3] (Raji, Cell-MTS proliferation), above 5000 nM.
Regarding `Cn1cc(-c2nc(CS(C)(=O)=O)ncc2OCC2CC2)c2ccccc2c1=O` [Example 143, 4-[5-(cyclopropylmethoxy)-2-(methylsulfonylmethyl)pyrimidin-4-yl]-2-methylisoquinolin-1-one], the IC50 against BRD4(BD1) (setting [4]) was below 500 nM; in test [1] (setting [5]), above 5000 nM; in test [2] (HL-60, Cell-MTS proliferation), 500 to 5000 nM; in test [3] (Raji, Cell-MTS proliferation), 500 to 5000 nM.
Regarding `Cn1cc(-c2cc(S(C)(=O)=O)ccc2O[C@H]2CC[C@H](O)CC2)c2cc(F)ccc2c1=O` [Example 186, 6-fluoro-4-[2-(trans-4-hydroxycyclohexyl)oxy-5-methylsulfonylphenyl]-2-methylisoquinolin-1-one], the IC50 was below 500 nM against BRD4(BD1) (setting [4]); above 5000 nM in test [1] (setting [5]); below 500 nM in test [2] (HL-60, Cell-MTS proliferation); below 500 nM in test [3] (Raji, Cell-MTS proliferation).
`CCS(=O)(=O)Nc1ncc(OCC2CC2)c(-c2cn(C)c(=O)c3cc(F)ccc23)n1` [Example 160, N-[5-(cyclopropylmethoxy)-4-(7-fluoro-2-methyl-1-oxoisoquinolin-4-yl)pyrimidin-2-yl]ethanesulfonamide]: the IC50 on BRD4(BD1) (setting [4]) was below 500 nM; in test [1] (setting [5]), above 5000 nM; in test [2] (HL-60, Cell-MTS proliferation), below 500 nM; in test [3] (Raji, Cell-MTS proliferation), below 500 nM.
`COc1cc(-c2cc(NS(C)(=O)=O)ccc2Oc2ccc(F)cc2F)cn(C)c1=O` [Example 442, N-[4-(2,4-difluorophenoxy)-3-(5-methoxy-1-methyl-6-oxopyridin-3-yl)phenyl]methanesulfonamide]: the IC50 at BRD4(BD1) (setting [4]) was below 500 nM; in test [1] (setting [9]), above 5000 nM; in test [2] (setting [10]) it was below 500 nM; in test [3] (setting [11]), below 500 nM.
With `COCC1COc2cc(S(C)(=O)=O)cc(-c3cn(C)c(=O)c4ccccc34)c2O1` (stereo not drawn) [Example 497, 4-[3-(methoxymethyl)-7-methylsulfonyl-2,3-dihydro-1,4-benzodioxin-5-yl]-2-methylisoquinolin-1-one], the IC50 was below 500 nM on BRD4(BD1) (setting [4]), above 5000 nM in test [1] (setting [9]), 500 to 5000 nM in test [2] (setting [10]) and 500 to 5000 nM in test [3] (setting [11]).
Consider `CCS(=O)(=O)c1ccc(OC)c(-c2cn(C)c(=O)c3ccc(-c4cn[nH]c4)cc23)c1` [Example 210, 4-(5-ethylsulfonyl-2-methoxyphenyl)-2-methyl-6-(1H-pyrazol-4-yl) isoquinolin-1-one], for which the IC50 against BRD4(BD1) (setting [4]) was below 500 nM; in test [1] (setting [5]), above 5000 nM; in test [2] (HL-60, Cell-MTS proliferation), below 500 nM; in test [3] (Raji, Cell-MTS proliferation), below 500 nM.
In the case of `Cc1cc(-c2cc(N(C)S(C)(=O)=O)ccc2Oc2ccc(F)cc2F)cn(C)c1=O` [Example 229, N-[4-(2,4-difluorophenoxy)-3-(1,5-dimethyl-6-oxopyridin-3-yl)phenyl]-N-methylmethanesulfonamide], the IC50 at BRD4(BD1) (setting [4]) is below 500 nM; in test [1] (setting [5]), above 5000 nM; in test [2] (HL-60, Cell-MTS proliferation), below 500 nM; in test [3] (Raji, Cell-MTS proliferation), below 500 nM.
`Cn1cc(-c2cc(CS(C)(=O)=O)ccc2Oc2ccc(F)cc2F)cc(F)c1=O` [Example 437, 5-[2-(2,4-difluorophenoxy)-5-(methylsulfonylmethyl)phenyl]-3-fluoro-1-methylpyridin-2-one]: the IC50 was below 500 nM against BRD4(BD1) (setting [4]), above 5000 nM in test [1] (setting [9]), below 500 nM in test [2] (setting [10]) and below 500 nM in test [3] (setting [11]).
`Cc1cc(-c2cc(N(C3COC3)S(C)(=O)=O)ccc2Oc2ccc(F)cc2F)cn(C)c1=O` [Example 230, N-[4-(2,4-difluorophenoxy)-3-(1,5-dimethyl-6-oxopyridin-3-yl)phenyl]-N-(oxetan-3-yl)methanesulfonamide]: the IC50 was below 500 nM at BRD4(BD1) (setting [4]); above 5000 nM in test [1] (setting [5]); below 500 nM in test [2] (HL-60, Cell-MTS proliferation); below 500 nM in test [3] (Raji, Cell-MTS proliferation).
As for `Cc1cc(-c2cc(OCC3CC3)cc(S(C)(=O)=O)c2)cn(C)c1=O` [Example 325, 5-[3-(cyclopropylmethoxy)-5-methylsulfonylphenyl]-1,3-dimethylpyridin-2-one], the IC50 is below 500 nM at BRD4(BD1) (setting [4]); above 5000 nM in test [1] (setting [5]); 500 to 5000 nM in test [2] (HL-60, Cell-MTS proliferation); 500 to 5000 nM in test [3] (Raji, Cell-MTS proliferation).
On to `CCS(=O)(=O)Nc1cnc(OCC2CC2)c(-c2cn(C)c(=O)c3occc23)c1` [Example 257, N-[6-(cyclopropylmethoxy)-5-(6-methyl-7-oxofuro[2,3-c]pyridin-4-yl)pyridine-3-yl]ethanesulfonamide], for which the IC50 at BRD4(BD1) (setting [4]) was below 500 nM; in test [1] (setting [5]), above 5000 nM; in test [2] (HL-60, Cell-MTS proliferation), below 500 nM; in test [3] (Raji, Cell-MTS proliferation), below 500 nM.
On to `Cn1cc(-c2cn(CS(C)(=O)=O)c(=O)cc2Oc2ccc(F)cc2F)ccc1=O` [Example 386, 4-(2,4-difluorophenoxy)-5-(1-methyl-6-oxopyridin-3-yl)-1-(methylsulfonylmethyl)pyridin-2-one], for which the IC50 is below 500 nM at BRD4(BD1) (setting [4]), above 5000 nM in test [1] (setting [9]), 500 to 5000 nM in test [2] (setting [10]) and 500 to 5000 nM in test [3] (setting [11]).
With `CCn1cc(-c2cc(CS(C)(=O)=O)ccc2Oc2ccc(F)cc2F)cc(C)c1=O` [Example 429, 5-[2-(2,4-difluorophenoxy)-5-(methylsulfonylmethyl)phenyl]-1-ethyl-3-methylpyridin-2-one], the IC50 at BRD4(BD1) (setting [4]) was below 500 nM; in test [1] (setting [9]) it was above 5000 nM; in test [2] (setting [10]), below 500 nM; in test [3] (setting [11]) it was below 500 nM.
